# Molecular target: T1, androgen receptor (AR) (Homo sapiens, UniProt P10275, T878A)
# T1 construct: LNCaP cells express endogenous AR and secrete prostate-specific antigen (PSA); endogenous in cells; host or cells: LNCaP human prostate cancer cells
# T1 sequence (P10275 1-920 T878A): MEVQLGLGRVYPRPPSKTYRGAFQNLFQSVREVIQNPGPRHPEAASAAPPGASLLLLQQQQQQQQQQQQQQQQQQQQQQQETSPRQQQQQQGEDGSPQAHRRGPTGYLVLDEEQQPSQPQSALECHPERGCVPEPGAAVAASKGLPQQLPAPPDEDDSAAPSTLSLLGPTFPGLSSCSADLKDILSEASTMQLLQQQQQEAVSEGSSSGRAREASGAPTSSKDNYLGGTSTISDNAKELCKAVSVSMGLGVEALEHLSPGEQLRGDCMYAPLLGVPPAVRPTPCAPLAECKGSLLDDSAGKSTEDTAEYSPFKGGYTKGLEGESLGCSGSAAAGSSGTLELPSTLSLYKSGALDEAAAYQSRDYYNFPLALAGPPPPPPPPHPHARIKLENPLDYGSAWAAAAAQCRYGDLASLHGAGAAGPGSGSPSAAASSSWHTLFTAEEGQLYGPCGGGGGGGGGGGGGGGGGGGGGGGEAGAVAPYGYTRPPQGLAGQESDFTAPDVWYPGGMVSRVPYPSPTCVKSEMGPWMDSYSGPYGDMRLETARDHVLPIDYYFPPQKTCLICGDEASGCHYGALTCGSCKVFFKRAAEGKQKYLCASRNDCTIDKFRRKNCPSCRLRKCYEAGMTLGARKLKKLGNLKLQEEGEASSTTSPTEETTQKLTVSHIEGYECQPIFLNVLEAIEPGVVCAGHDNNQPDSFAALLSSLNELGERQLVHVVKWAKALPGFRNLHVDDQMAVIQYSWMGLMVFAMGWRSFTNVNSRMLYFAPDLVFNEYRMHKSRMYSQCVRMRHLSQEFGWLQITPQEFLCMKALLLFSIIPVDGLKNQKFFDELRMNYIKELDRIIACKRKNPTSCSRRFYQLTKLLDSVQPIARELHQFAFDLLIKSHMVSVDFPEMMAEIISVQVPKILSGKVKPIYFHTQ
# Experiment: LNCaP PSA (6.1 kb)-luciferase assay (R1881-induced)
# Type: cell-based
# Settings: LNCaP PSA (6.1 kb)-luciferase assay, dose response against DMSO and EPI-001 controls (FIGS. 1-6)
# Description: LNCaP cells were employed initially for all experiments because they are well-differentiated human prostate cancer cells in which ligand-independent activation of the AR by FSK has been characterized (Nazareth et al 1996 J. Biol. Chem. 271, 19900-19907; and Sadar 1999 J. Biol. Chem. 274, 7777-7783). LNCaP cells express endogenous AR and secrete prostate-specific antigen (PSA) (Horoszewicz et al 1983 Cancer Res. 43, 1809-1818). LNCaP cells can be grown either as monolayers in cell culture or as tumors in the well-characterized xenograft model that progresses to androgen independence in castrated hosts (Sato et al 1996 J. Steroid Biochem. Mol. Biol. 58, 139-146; Gleave et al 1991 Cancer Res. 51, 3753-3761; Sato et al 1997 Cancer Res. 57, 1584-1589; and Sadar et al 2002 Mol. Cancer. Ther. 1(8), 629-637). […] Small molecules that specifically target the AR-NTD should have no effect on PC3 cells. This means that they should not alter the proliferation of PC3 cells if they specifically block the AR to mediate their inhibitory effects. R1881 was employed since it is stable and avoids problems associated with the labile physiological ligand dihydrotestosterone (DHT). Reporter specificity may be determined using several alternative reporter gene constructs. Some well characterized ARE-driven reporter gene constructs that have been used extensively are the PSA (6.1 kb) enhance/promoter which contains several AREs and is highly inducible by androgens as well as by FSK (Ueda et al 2002 A J. Biol. Chem. 277, 7076-7085) and the ARR3-thymidine kinase (tk)-luciferase, which is an artificial reporter construct that contains three tandem repeats of the rat probasin ARE1 and ARE2 regions upstream of a luciferase reporter (Snoek et al 1996 J. Steroid Biochem. Mol. Biol. 59, 243-250).
# LNCaP cells were transiently cotransfected with PSA (6.1 kb)-luciferase (0.25 μg/well) in 24-well plates for 24 h prior to pre-treatment with compounds for 1 hour before the addition of synthetic androgen, R1881 (1 nM) to induce PSA production or vehicle. The total amount of plasmid DNA transfected was normalized to 0.75 μg/well by the addition of the empty vector. After 48 h of incubation with R1881, the cells were harvested, and relative luciferase activity was determined. Test compounds were added to the cells at various concentrations and activity for each treatment was normalized to the predicted maximal activity induction (in the absence of test compounds, vehicle only). Plotting of sigmoidal curves (Boltzmann Function) and IC50 calculations were done using OriginPro 8.1 Software (Northampton, Mass., USA).
# Using the LNCaP PSA (6.1 kb)-luciferase assay described above, various compounds described herein were tested against DMSO and EPI-001 controls. In FIG. 1, a comparison is made between EPI-100, EPI-101, EPI-102 and DMSO from 1 to 35 μM. […] In FIG. 3A, EPI-107 is compared to DMSO and EPI-001 at 2.5 μM to 10 μM. In FIG. 3B, EPI-108 is compared to DMSO at 0.5 μM to 35 μM. In FIG. 4A, EPI-114 is compared to DMSO and EPI-001 at 5 μM and 10 μM. In FIG. 4B, EPI-116 is compared to DMSO and EPI-001 at 1 μM to 30 μM.
row,SMILES,androgen receptor inhibitory activity
1,OC(CCl)COc1ccc(Oc2ccc(OCC(O)CCl)cc2)cc1 (stereo not drawn) [EPI-300],showed androgen receptor inhibitory activity
2,C#CCOc1ccc(C(=O)c2ccc(O)cc2)cc1 [EPI-106],showed androgen receptor inhibitory activity
3,OC(CCl)COc1ccc(Sc2ccc(OCC(O)CCl)cc2)cc1 (stereo not drawn) [EPI-400],showed androgen receptor inhibitory activity
4,C#CCOc1ccc(C(=O)c2ccc(OCC(O)CO)cc2)cc1 (stereo not drawn) [EPI-111],showed androgen receptor inhibitory activity
5,O=C(c1ccc(O)cc1)c1ccc(OCCCCl)cc1 [EPI-117],showed androgen receptor inhibitory activity
6,C#CCOc1ccc(C(=O)c2ccc(OCCCBr)cc2)cc1 [EPI-108],showed androgen receptor inhibitory activity
7,O=C(c1ccc(OCC(O)CCl)cc1)c1ccc(OCC(O)CCl)cc1 (stereo not drawn) [EPI-114],showed androgen receptor inhibitory activity
8,OC(CCl)COc1ccc(-c2ccc(OCC(O)CCl)cc2)cc1 (stereo not drawn) [EPI-3000],showed androgen receptor inhibitory activity
9,C#CCOc1ccc(C(=O)c2ccc(OCCCCl)cc2)cc1 [EPI-107],showed androgen receptor inhibitory activity
10,C#CCOc1ccc(C(=O)c2ccc(OCC#C)cc2)cc1 [EPI-109],showed androgen receptor inhibitory activity
11,O=C(c1ccc(OCCCCl)cc1)c1ccc(OCCCCl)cc1 [EPI-116],showed androgen receptor inhibitory activity

# Same assay, conditions: LNCaP cells transfected with PSA (6.1 kb)-luciferase, 1 h pre-treatment with compound, R1881 1 nM, 48 h
row,SMILES,EXPERIMENTAL DATA (activity in the LNCaP PSA (6.1 kb)-luciferase assay)
1,O=C(c1ccc(O)cc1)c1ccc(OCCCCl)cc1 [drawing 512],Active
2,OC(CCl)COc1ccc(-c2ccc(OCC(O)CCl)cc2)cc1 (centres unmarked) [drawing 515],Active
3,O=C(c1ccc(OCCCCl)cc1)c1ccc(OCCCCl)cc1 [drawing 511],Active
4,OC(CCl)COc1ccc(Sc2ccc(OCC(O)CCl)cc2)cc1 (centres unmarked) [drawing 514],Active
5,C#CCOc1ccc(C(=O)c2ccc(OC[C@H](O)CCl)cc2)cc1,Active
6,OC(CCl)COc1ccc(Oc2ccc(OCC(O)CCl)cc2)cc1 (centres unmarked) [drawing 513],Active
7,C#CCOc1ccc(C(=O)c2ccc(OC[C@@H](O)CCl)cc2)cc1,Active
8,C#CCOc1ccc(C(=O)c2ccc(OCC#C)cc2)cc1 [drawing 508],Active
9,C#CCOc1ccc(C(=O)c2ccc(O)cc2)cc1 [drawing 505],Active
10,C#CCOc1ccc(C(=O)c2ccc(OCC(O)CCl)cc2)cc1 (centres unmarked),Active
11,O=C(c1ccc(OCC(O)CCl)cc1)c1ccc(OCC(O)CCl)cc1 (centres unmarked) [drawing 510],Active
12,C#CCOc1ccc(C(=O)c2ccc(OCCCCl)cc2)cc1 [drawing 506],Active
13,CC(C)(c1ccc(OCC(O)CO)cc1)c1ccc(OCC(O)CCl)cc1 (centres unmarked) [reference compound],Active (positive control)
14,C#CCOc1ccc(C(=O)c2ccc(OCCCBr)cc2)cc1 [drawing 507],Active
15,C#CCOc1ccc(C(=O)c2ccc(OCC(O)CO)cc2)cc1 (centres unmarked) [drawing 509],Active

# — patent US20130109758A1, “BISPHENOL DERIVATIVE THERAPEUTICS AND METHODS FOR THEIR USE” (THE UNIVERSITY OF BRITISH COLUMBIA, priority 2010, published 2013)
